# Data as given in patent publication US20240409536A1, “COMPOUNDS AND METHODS FOR MODULATING SPLICING” (REMIX THERAPEUTICS INC., priority 2021, published 2024).
# Structures can show the parent of a compound that is named as a salt.
# Columns and labels:
# K562 cells = test: Cell Titer Glo 2.0 cell viability assay in K562 cells; settings: 72 hours
# MYB mRNA = test: Gene panel canonical junction qPCR assay, MYB CJ mRNA decrease; format: cell-based, human; settings: Homo sapiens, canonical junction qPCR, read-out: MYB IC50 (decrease in CJ mRNA levels)
# Procedure, shortened: (§1)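 A673 or K562 cells treated with compound; canonical exon-exon junction mRNA quantified by cDNA synthesis and RT-qPCR with junction-spanning primer/probe, normalized to GAPDH, GUSB or PPIA and DMSO (2^(−ΔΔCt)). Percent response from set ΔCt assay windows fitted to 4-parameter logistic; IC50 for CJ decrease.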
# Target C mRNA = test: Gene panel canonical junction qPCR assay, Target C CJ mRNA decrease; format: cell-based; settings: Homo sapiens, canonical junction qPCR, read-out: Target C IC50 (decrease in CJ mRNA levels)
# Procedure, shortened: as §1
# HTT mRNA = test: Splicing RT-qPCR assay, HTT canonical (CJ) and alternative (AJ) junction mRNA; format: cell-based; settings: Homo sapiens, A673 or K562 cells, 24 hours; for IC50: decrease in canonical junction mRNA; for AC50: increase in alternative junction mRNA
# Procedure, shortened: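 RT-qPCR read-out: CJ and AJ junction isoforms quantified from cell lysates, normalized to housekeeping GAPDH/GUSB (K562) or PPIA (A673). Cells had 24 h compound exposure, 11-point 3-fold series from 10 uM final, ≤0.25% DMSO.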
IC50 (MYB mRNA) [nM],IC50 (Target C mRNA) [µM],IC50 (HTT mRNA) [nM],Structure (SMILES),Viability (K562 cells),AC50 (HTT mRNA) [nM]
< 100,> 10,> 10000,"Cc1cn2cc(NC(=O)c3ccc(N4CCNC5(CC5)C4)c4nccnc34)cc(F)c2n1 [Compound 218, 8-{4,7-diazaspiro[2.5]octan-7-yl}-N-{8-fluoro-2-methylimidazo[1,2-a]pyridin-6-yl}quinoxaline-5-carboxamide]",B (B represents 100-1000 nM),1000 to 10000
100 to 1000,> 10,> 10000,Cc1cn2cc(NC(=O)c3ccc(N4C[C@@H](C)NC5(CC5)C4)c4nccnc34)cc(F)c2n1 [Compound 376],B (B represents 100-1000 nM),> 10000
100 to 1000,1 to 10,1000 to 10000,Cc1cn2cc(NC(=O)c3ccc(N4CCC(NC(C)(C)C)CC4)c4ccnnc34)cc(F)c2n1 [Compound 138],C (C represents 1000-9999 nM),1000 to 10000
100 to 1000,1 to 10,1000 to 10000,Cc1cn2cc(NC(=O)c3ccc(N4CCNC5(CCOCC5)C4)c4nccnc34)cc(F)c2n1 [Compound 374],B (B represents 100-1000 nM),1000 to 10000
< 100,0.1 to 1,100 to 1000,COc1cnc2c(C(=O)Nc3cc(F)c4nc(C)cn4c3)ccc(N3C[C@@H](C)N[C@@H](C)C3)c2n1 [Compound 223],B (B represents 100-1000 nM),100 to 1000
1000 to 10000,1 to 10,1000 to 10000,Cc1cn2nc(NC(=O)c3ccc(N4CCNCC4)c4ccnnc34)cc2c(C)n1 [Compound 123],C (C represents 1000-9999 nM),1000 to 10000
100 to 1000,> 10,> 10000,Cc1cn2cc(NC(=O)c3ccc(N4CCNC5(CCOC5)C4)c4nccnc34)cc(F)c2n1 (centres unmarked) [Compound 373],B (B represents 100-1000 nM),> 10000
< 100,> 10,1000 to 10000,"COc1cc2c(N3CCNCC3)ccc(C(=O)Nc3cc(F)c4nc(C)cn4c3)c2nn1 [Compound 183, N-{8-fluoro-2-methylimidazo[1,2-a]pyridin-6-yl}-3-methoxy-5-(piperazin-1-yl)cinnoline-8-carboxamide]",B (B represents 100-1000 nM),1000 to 10000
100 to 1000,1 to 10,1000 to 10000,Cc1cn2cc(NC(=O)c3ccc(N4CCN(C)[C@@H](C)C4)c4ccnnc34)cc(F)c2n1 [Compound 150],B (B represents 100-1000 nM),1000 to 10000
100 to 1000,1 to 10,1000 to 10000,Cc1cn2cc(NC(=O)c3ccc(N4CCNCC4)c4ccnnc34)cc(C)c2n1 [Compound 125],B (B represents 100-1000 nM),1000 to 10000
< 100,> 10,100 to 1000,"COc1cnc2c(N3CCNCC3)ccc(C(=O)Nc3cc(F)c4nc(C)cn4c3)c2n1 [Compound 207, N-{8-fluoro-2-methylimidazo[1,2-a]pyridin-6-yl}-3-methoxy-8-(piperazin-1-yl)quinoxaline-5-carboxamide; bis(trifluoroacetic acid)]",B (B represents 100-1000 nM),1000 to 10000
1000 to 10000,> 10,> 10000,Cc1cn2cc(NC(=O)c3ccc(N4C[C@H]5C[C@@H]4C5N(C)C)c4ccnnc34)cc(F)c2n1 (some centres unmarked) [Compound 155],B (B represents 100-1000 nM),> 10000
< 100,> 10,1000 to 10000,"COc1nc(NC(=O)c2ccc(N3CCNCC3)c3ccnnc23)cn2cc(C)nc12 [Compound 179, N-{8-methoxy-2-methylimidazo[1,2-a]pyrazin-6-yl}-5-(piperazin-1-yl)cinnoline-8-carboxamide]",B (B represents 100-1000 nM),1000 to 10000
100 to 1000,> 10,> 10000,"Cc1cn2cc(NC(=O)c3ccc(N4CCNCC4)c4ccnnc34)nc(C)c2n1 [Compound 164, N-{2,8-dimethylimidazo[1,2-a]pyrazin-6-yl}-5-(piperazin-1-yl)cinnoline-8-carboxamide 2,2,2-trifluoroacetate]",B (B represents 100-1000 nM),> 10000
< 100,1 to 10,> 10000,"COCCOc1ccc2c(N3CCNCC3)ccc(C(=O)Nc3cc(F)c4nc(C)cn4c3)c2n1 [Compound 173, N-{8-fluoro-2-methylimidazo[1,2-a]pyridin-6-yl}-2-(2-methoxyethoxy)-5-(piperazin-1-yl)quinoline-8-carboxamide]",B (B represents 100-1000 nM),> 10000
< 100,1 to 10,1000 to 10000,"Cc1cn2cc(NC(=O)c3ccc(N4C[C@@H](C)N[C@@H](C)C4)c4ccnnc34)cc(F)c2n1 [Compound 161, 5-(3,5-dimethylpiperazin-1-yl)-N-{8-fluoro-2-methylimidazo[1,2-a]pyridin-6-yl}cinnoline-8-carboxamide 2,2,2-trifluoroacetate]",B (B represents 100-1000 nM),1000 to 10000
< 100,1 to 10,100 to 1000,Cc1cn2cc(NC(=O)c3ccc(N4CCNC(C)C4)c4ccnnc34)cc(F)c2n1 (centres unmarked) [Compound 128],B (B represents 100-1000 nM),100 to 1000
< 100,1 to 10,1000 to 10000,"Cc1cn2cc(NC(=O)c3ccc(N4CCNCC4)c4cccnc34)cc(F)c2n1 [Compound 165, N-{8-fluoro-2-methylimidazo[1,2-a]pyridin-6-yl}-5-(piperazin-1-yl)quinoline-8-carboxamide]",A (A represents <100 nM),100 to 1000
< 100,> 10,> 10000,"COc1cnc2c(C(=O)Nc3cc(F)c4nc(C)cn4c3)ccc(N3CCNCC3)c2n1 [Compound 225, N-{8-fluoro-2-methylimidazo[1,2-a]pyridin-6-yl}-2-methoxy-8-(piperazin-1-yl)quinoxaline-5-carboxamide]",C (C represents 1000-9999 nM),> 10000
100 to 1000,> 10,> 10000,"Cc1nc(NC(=O)c2ccc(N3CCNCC3)c3ccnnc23)cc2cn(C)nc12 [Compound 178, N-{2,7-dimethylpyrazolo[3,4-c]pyridin-5-yl}-5-(piperazin-1-yl)cinnoline-8-carboxamide]",C (C represents 1000-9999 nM),> 10000
100 to 1000,0.1 to 1,100 to 1000,"Cc1cn2cc(NC(=O)c3ccc(N4CCNCC4)c4ccnnc34)[nH]c(=O)c2n1 [Compound 177, N-{2-methyl-8-oxo-7H-imidazo[1,2-a]pyrazin-6-yl}-5-(piperazin-1-yl)cinnoline-8-carboxamide trifluoroacetic acid salt]",B (B represents 100-1000 nM),100 to 1000
100 to 1000,> 10,1000 to 10000,Cc1cn2cc(NC(=O)c3ccc(N4CCNC5(CC5)C4)c4ccnnc34)cc(F)c2n1 [Compound 105],B (B represents 100-1000 nM),1000 to 10000
< 100,> 10,1000 to 10000,Cc1cn2cc(NC(=O)c3ccc(N4C[C@H](C)NC5(CC5)C4)c4nccnc34)cc(F)c2n1 [Compound 377],B (B represents 100-1000 nM),1000 to 10000
< 100,> 10,100 to 1000,"CCNC1CCN(c2ccc(C(=O)Nc3cc(F)c4nc(C)cn4c3)c3nccnc23)CC1 [Compound 191, 8-[4-(ethylamino)piperidin-1-yl]-N-{8-fluoro-2-methylimidazo[1,2-a]pyridin-6-yl}quinoxaline-5-carboxamide]",B (B represents 100-1000 nM),100 to 1000
100 to 1000,1 to 10,1000 to 10000,Cc1cn2cc(NC(=O)c3ccc(N4CC5(CNC5)C4)c4ccnnc34)cc(F)c2n1 [Compound 131],B (B represents 100-1000 nM),1000 to 10000
100 to 1000,1 to 10,1000 to 10000,Cc1cn2cc(NC(=O)c3ccc(C4CCNC5(CC5)C4)c4nccnc34)cc(F)c2n1 (centres unmarked) [Compound 375],B (B represents 100-1000 nM),1000 to 10000
< 100,0.1 to 1,100 to 1000,Cc1cn2cc(NC(=O)c3ccc(N4CCC(N(C)C)CC4)c4ccnnc34)cc(F)c2n1 [Compound 137],A (A represents <100 nM),100 to 1000
< 100,0.1 to 1,100 to 1000,"Cc1cnc2c(N3CCC(N(C)C)CC3)ccc(C(=O)Nc3cc(F)c4nc(C)cn4c3)c2n1 [Compound 200, 8-[4-(dimethylamino)piperidin-1-yl]-N-{8-fluoro-2-methylimidazo[1,2-a]pyridin-6-yl}-3-methylquinoxaline-5-carboxamide]",B (B represents 100-1000 nM),100 to 1000
